Where no end group is shown, it is not given here.
Experiments:
Assay type in all cases: in vivo, rat
[1] = test system: Sprague Dawley rats; assay: Acute inflammatory pain, carrageenan paw withdrawal latency; conditions: for Mean Latency Time In Seconds ± SEM, 30 minutes post treatment / Mean Latency Time In Seconds ± SEM, 60 minutes post treatment: 3 nmol intrathecal cannula; for Mean Latency Time In Seconds ± SEM, 30 minutes post treatment: given after 150 min post carrageenan; for Mean Latency Time In Seconds ± SEM, 60 minutes post treatment: predetermined cut-off value 20.8 sec
Method: Tissue injury results in inflammation and hyperalgesia (i.e. increased magnitude or duration of pain response to supra threshold noxious stimuli) at both the site of injury and at adjacent tissue sites. To assess the anti-hyperalgesic activity of GsAF II in inflammatory pain conditions, paw withdrawal latencies were determined in adult 350-400 gram male Sprague Dawley rats following the unilateral injection of carrageenan, a seaweed extract, into the hindpaw in accordance with the method of Hargreaves et al, Pain, 32:77-88, 1988. Briefly, withdrawal latencies are measured by placing the rat on a glass plate and focusing radiant heat from the underside of the plate toward the hindpaw surface. Latencies values are recorded in seconds to withdrawal of the hindpaw from the surface of the plate. Basal measurements are made prior to injection of the carrageenan (4 mg/hindpaw), followed by a measurement at 150 min post carrageenan injection to obtain the level of hyperalgesic response. Subsequent to the second measurement, GsAF II or vehicle (i.e. 0:1% BSA/saline) is administered through an indwelling intrathecal cannula positioned within the lumbar enlargement of the spinal cord. Anti-hyperalgesic activity is determined by measuring paw withdrawal latencies at various time intervals following compound administration. Concurrent with the paw withdrawal latencies, physical measurements of paw volume and paw temperature are recorded to detect anti-inflammatory and anti-pyretic activities.

[2] = test system: Sprague-Dawley rats; assay: Hot plate threshold
Method: This test measures the temperature at which point a rat voluntarily removes one of its hindlimbs from the heated surface and either shakes or lick the affected appendage. The temperature of the heated surface is pre-set to the experimentally deduced value of 38° C. and a maximum cutoff value of either 53° C. or 54° C. has been used. Data is expressed either as absolute temperature in degrees C. or as percentage maximal possible effect as described by the formula [formula] (54 is substituted for 53 in the above formula if it is the maximal value.)
(§1) With minimal restraint, peptide GsAF I was injected intrathecally (i.th.) into young (75-150 gram) male Sprague-Dawley rats (Charles Rivers Laboratories, Wilmington, Mass.) into the spinal subarachnoid space between lumbar spinous processes L4 and L5 using 10 microliter Hamilton syringes equipped with 3/8 inch by 28G needles. Dosing levels were based upon concentrations deduced from ultraviolet absorbance values at 280 nm using an extinction coefficient of 18710. Injection volume was 10 microliters. The injection vehicle was saline or 0.1 %bovine serum albumin(BSA)/saline. The rats were pretreated with GsAF I 30 minutes prior to exposure to heat.
as §1, with “GsAF II” for “GsAF I”, “or 0.1% bovine” for “or 0.1 %bovine”, “GsAF II 15” for “GsAF I 30”

[3] = test system: opioid receptors; assay: Opioid receptor testing (opioid antagonist pretreatment)
Method: Animals were then tested in the tail flick test (Example 3) and von Frey tests (Example 5).

[4] = test system: Sprague Dawley rats; conditions: i.th.; two treatment arms
[5] = 3 nmol group (n = 4), before compound administration

Substance: YCQKWMWTCDEERKCCEGLVCRLWCKKKIEW (cysteine pairing not given here) [GsAF II]
- Mean Latency Time In Seconds ± SEM, 150 minutes post carrageenan injection [1, 5]: 3.0 ± 0.81 s
- Mean Latency Time In Seconds ± SEM, base latency prior to carrageenan injection [1, 5]: 8.3 ± 1.2 s
- Mean Latency Time In Seconds ± SEM, 30 minutes post treatment [1]: 17.82 ± 3.78 s
- Mean Latency Time In Seconds ± SEM, 30 minutes post treatment ([1]; listed as GsAFII): 17.82 ± 3.78 s
- Mean Latency Time In Seconds ± SEM, 60 minutes post treatment [1]: 20.8 s
- Mean Latency Time In Seconds ± SEM, 60 minutes post treatment ([1]; listed as GsAFII): 20.8 ± 0.00 s
- confounding motor deficits or overt negative side effects ([1]; 3 nmoles intrathecal): no indication
- hyperalgesic, thermal-induced response ([1]; 3 nmoles intrathecal): completely reversed
- paw temperature ([1]; 3 nmoles intrathecal): No significant reduction
- paw volume ([1]; 3 nmoles intrathecal): No significant reduction
- MPE, hot plate threshold ([2]; 2.33 nanomole (9.27 micrograms) i.th., 15 minutes pretreatment, all animals): 100 % MPE
- motor coordination problems ([2]; 2.33 nanomole and 583 picomoles i.th.): No motor coordination problems were witnessed
- average MPE, hot plate threshold ([2]; 583 picomoles (2.32 micrograms) i.th., 15 minutes pretreatment): 59%

Substance: Tyr-Cys-Gln-Lys-Trp-Leu-Trp-Thr-Cys-Asp-Ser-Glu-Arg-Lys-Cys-Cys-Glu-Asp-Met-Val-Cys-Arg-Leu-Trp-Cys-Lys-Lys-Arg-Leu-NH2 (YCQKWLWTCDSERKCCEDMVCRLWCKKRL-NH2; cysteine pairing not given here) [GsAF I]
- effect of B-funaltrexamine pretreatment on analgesic activity ([3]; B-funaltrexamine 5 micrograms i.th. 18 hours prior, hot plate test or formalin test): failed to inhibit
- effect of intrathecal naloxone on analgesic response ([3]; naloxone 50 μg i.th. immediately prior, 180 pmoles i.th., measured 10 minutes later): failed to inhibit
- effect of naloxone pretreatment on analgesic activity ([3]; naloxone 10mg/kg subcutaneous 5 minutes prior, 180 pmoles i.th., measured 10 minutes later, tail flick and von Frey tests): failed to inhibit
- MPE, hot plate threshold ([2]; 18 picomoles (6.6 nanograms) i.th., one hour pretreatment): 24 % MPE
- activity in hot plate threshold ([2]; 18 picomoles i.th., 30 minute pretreatment): loss of significant activity
- adverse motor effects ([2]; 180 and 18 picomoles i.th.): No adverse motor effects were evident
- MPE, hot plate threshold ([2]; 180 picomole (66 nanograms) i.th., one hour pretreatment): 91 % MPE
- MPE, hot plate threshold ([2]; 180 picomoles (666 nanograms) i.th., 30 minute pretreatment): 70 % MPE
- dose response properties, morphine treatment versus saline arm (cross tolerance) [4]: not significantly different

Source: US5877026A, “Analgesic peptides from venom of Grammostola spatulata and use thereof” (priority 1998, dated 1999)
